From US6562855B1, “Anaesthetic formulation comprising an NMDA-antagoinst and an alpha-2 adrenergic agonist” (priority 1999, dated 2003)
Entries after “also recorded” stand apart in the source; their conditions may differ.

Legend:
Male Sprague-Dawley rats [1] = experiment: Loss of righting reflex (sleep-time), hypnotic response to dexmedetomidine; format: in vivo, rat; conditions: for effect of co-administration on induction of tolerance to the hypnotic effect of dexmedetomidine: NO2-arginine 0.4-4 μg/kg/hr with dexmedetomidine 5 μg/kg/hr for 7 days (FIG. 5C); for effect of co-administration on development of tolerance to the hypnotic effect of dexmedetomidine: MK-801 100 and 400 μg/kg/hr co-administered with dexmedetomidine, challenge 100 μg/kg i.p., pumps removed 1 day prior to testing (FIG. 2C)
Description: (§1) The experimental protocol was approved by the Animal Care and Use Committee of the Veterans Affairs Palo Alto Health Care System. Male Sprague-Dawley rats, (B&K, Fremont, Calif.) weighing 250-350 g were used. The rats were stratified to match the distribution of the weights in the groups as closely as possible. All tests were performed between 10 a.m. and 4 p.m. The number of animals for each experiment is listed in the legends.
(§2) Rats were made tolerant to the anesthetic action of an alpha-2 agonist, dexmedetomidine, as described by Reid K et al (ibid). Briefly, rats were administered dexmedetomidine chronically using Alzet® osmotic minipumps (Model 2002 or 1007D, Alza, Palo Alto Calif.), which discharge their contents at a mean pumping rate of 0.48±0.02 μl/h. The pumps were inserted subcutaneously during isoflurane anesthesia in the dorsal thoracic region and loaded to deliver 5 μg/kg/h for 7 days to induce hypnotic tolerance and 10 μg/kg/h for 14 days to induce analgesic tolerance. […] When MK-801 or Nω-nitro-L-arginine (NO2-arginine) was co-administered with dexmedetomidine the MK-801 was included in the same pump. […] For the MK-801 and Nω-nitro-L-arginine (NO2-arginine) hypnotic experiments the pumps were removed one day prior to behavioral testing. In all other experiments the pumps were not removed prior to testing.
Hypnotic response to dexmedetomidine, was defined by the loss of the rat's righting reflex (LORR), and its duration was measured in minutes and referred to as sleep-time. The duration of the LORR was assessed as the time from the rat's inability to right itself when placed on its back until the time that it spontaneously reverted, completely, to the prone position. The hypnotic response test was performed between 10 a.m. and 6 p.m. as described in Reid et al, 1994.
(§3) The NOS inhibitor Nω-nitro-L-arginine (NO2-arginine) (Sigma) and the NMDA antagonists MK-801 (RBI) and ketamine (Sigma) were diluted in normal saline and acutely administered intraperitoneally or administered chronically by means of Alzet® osmotic minipumps (Model 2002 or 1007D, Alza, Palo Alto Calif.). These compounds were co-administered with dexmedetomidine by including both drugs in one pump.
(§4) LORR and tail flick data was analyzed using the analysis of variance (ANOVA) followed by post hoc Bonferroni tests or Dunnett's multiple comparison test or t-test where appropriate.

Male Sprague-Dawley rats [2] = experiment: Tail flick response to a noxious thermal stimulus (analgesic action of dexmedetomidine); format: in vivo, rat; conditions: for effect of acute administration on the analgesic action of dexmedetomidine: tail flick 40 min later
Description: as §1, §2
Nociceptive response was assessed by the tail flick response to a noxious thermal stimulus 40 minutes after the administration of the dexmedetomidine challenge dose. A high intensity light beam focused on the tail and the time for the rat to move its tail out of the light was recorded as tail flick latency. This method has been described previously in the literature (Guo T Z et al, ibid). The latencies from three sites on the tail were averaged. A cut-off time of 10 sec was predetermined to prevent tissue damage. Baseline measurements consist of a set of three tail flick determinations at 2 min intervals.
as §3, §4

Male Sprague-Dawley rats [3] = conditions: previously demonstrated (Guo T Z et al); cited from earlier work
NMDA receptor = conditions: 80% xenon; cultured hippocampal neurons; cited from earlier work
[4] = 20° C. and normal pressure; cited from earlier work
[5] = chronic exposure to dexmedetomidine for 14 days (10 μg/kg/h) (FIG. 1B)

Question: Which results are given for CNC1(c2ccccc2Cl)CCCCC1=O (stereo not shown) [ketamine]?
Answer: effect on dexmedetomidine sedation when administered alone (Male Sprague-Dawley rats [1]; ketamine 400 μg/kg/hr alone (FIG. 3C)): without having an effect on dexmedetomidine sedation; also recorded: had no effect by itself; effect of co-administration on tolerance to the hypnotic (sedative) effect of dexmedetomidine (Male Sprague-Dawley rats [1]; ketamine 400 μg/kg/hr concurrently with dexmedetomidine, challenge 150 μg/kg i.p., pumps left in place (FIG. 3C)): reverses tolerance; also recorded: did reverse tolerance; effect of acute administration on established tolerance to the hypnotic effect of dexmedetomidine (Male Sprague-Dawley rats [1]; ketamine 10 or 20 mg/kg acute, tolerant rats (FIG. 3B)): does not block dexmedetomidine-induced tolerance; also recorded: could not reverse tolerance; effect of acute administration on dexmedetomidine-induced sleep time (Male Sprague-Dawley rats [1]; ketamine acute, dexmedetomidine 150 μg/kg i.p. (FIG. 3A)): has no effect on the sleep time; effect of acute administration on dexmedetomidine-induced sleep time (Male Sprague-Dawley rats [1]; ketamine acute, dexmedetomidine 150 μg/kg i.p. (FIG. 3A), listed as Ketamine): did not affect the sleep time

Question: What does the source list for Cc1cccc([C@H](C)c2cnc[nH]2)c1C [dexmedetomidine]?
Answer: hypnotic effect of dexmedetomidine (duration of loss of righting reflex), dose response (Male Sprague-Dawley rats [1]; rats chronically treated with dexmedetomidine 5 μg/kg/h for 7 days, even when large doses were given (FIG. 1A)): almost completely absent; hypnotic effect of dexmedetomidine (duration of loss of righting reflex), dose response (Male Sprague-Dawley rats [1]; sham treated animals, challenge doses (FIG. 1A)): dose dependently increased; maximal analgesic effect of dexmedetomidine (Male Sprague-Dawley rats [2]; [5]): reduced the maximal effect; shift of the analgesic dose response curve for dexmedetomidine (Male Sprague-Dawley rats [2]; [5]): about 2 fold; dose of maximal efficacy of hypnotic action (biphasic dose response curve) (Male Sprague-Dawley rats [3]): around 300 μg/kg

Question: What does the source list for N=C(NCCC[C@H](N)C(=O)O)N[N+](=O)[O-] [NO2-arginine, Nω-nitro-L-arginine]?
Answer: effect of co-administration on induction of tolerance to the hypnotic effect of dexmedetomidine (Male Sprague-Dawley rats [1]): dose-dependently blocks the development of tolerance; also recorded: attenuated; effect of co-administration on induction of tolerance to the hypnotic effect of dexmedetomidine (Male Sprague-Dawley rats [1]; listed as NO2-Arginine): blocked; effect of acute administration on dexmedetomidine-induced sleep time (Male Sprague-Dawley rats [1]; NO2-arginine 15 min prior to dexmedetomidine 100 μg/kg i.p., drug naive rats (FIG. 5A)): dependently increases the dexmedetomidine-induced sleep time; also recorded: increased sleep time only at high doses; effect of acute administration on expression of tolerance to the hypnotic effect of dexmedetomidine (Male Sprague-Dawley rats [1]; low doses of NO2-arginine acute, after 7-day dexmedetomidine, challenge 100 μg/kg (FIG. 5B)): does not reverse the tolerance; also recorded: did not reverse its expression; effect of acute administration on expression of tolerance to the hypnotic effect of dexmedetomidine (Male Sprague-Dawley rats [1]; low doses of NO2-arginine acute, after 7-day dexmedetomidine, challenge 100 μg/kg (FIG. 5B), listed as NO2-Arginine): does not prevent the expression of tolerance; effect on dexmedetomidine-induced sleep time when given alone (Male Sprague-Dawley rats [1]; treatment with just NO2-arginine 1.25 μg/kg/hr (FIG. 5C, last column)): does not affect the dexmedetomidine-induced sleep time; also recorded: did not affect the dexmedetomidine sleep time; effect on dexmedetomidine-induced analgesia in control animals (Male Sprague-Dawley rats [2]; NO2-arginine 4 μg/kg/hr (FIG. 6C)): had no effect on dexmedetomidine-induced analgesia in control animals; effect on tail flick latency when administered alone (Male Sprague-Dawley rats [2]; NO2-arginine 4 μg/kg/hr alone (data not shown)): had no effect on tail flick latency; effect of co-administration on analgesic tolerance to dexmedetomidine (Male Sprague-Dawley rats [2]; NO2-arginine 4 μg/kg/hr with dexmedetomidine 10 μg/kg/hr for 14 days (FIG. 6C)): has no effect on analgesic tolerance; also recorded: had no effect on analgesic tolerance; effect of co-administration on analgesic tolerance to dexmedetomidine (Male Sprague-Dawley rats [2]; NO2-arginine 8 μg/kg/hr with dexmedetomidine 10 μg/kg/hr for 14 days (FIG. 6C)): also ineffective; also recorded: ineffective at reversing tolerance; effect of acute administration on expression of tolerance to the analgesic action of dexmedetomidine (Male Sprague-Dawley rats [2]; NO2-arginine 1 and 20 mg/kg i.p., dexmedetomidine 100 μg/kg i.p., tolerant rats (FIG. 6B)): does not reverse dexmedetomidine tolerance; also recorded: did not reverse the expression of tolerance; effect of acute administration on the analgesic action of dexmedetomidine (Male Sprague-Dawley rats [2]; NO2-arginine i.p. 15 min prior to dexmedetomidine 50 μg/kg i.p., naïve rats (FIG. 6A)): has no effect on the analgesic action of dexmedetomidine; also recorded: did not affect the analgesic action of dexmedetomidine

Question: With [Xe] [xenon] as the compound, how does the “reduction of NMDA-activated currents” value (NMDA receptor) read?
Answer: up to 60%

Question: And the “concentration of xenon dissolved or dispersed in lipid emulsion” value [4]?
Answer: 0.2 to 10 ml per ml of emulsion

Question: Which results are given for C[C@]12N[C@H](Cc3ccccc31)c1ccccc12 [MK-801]?
Answer: effect on dexmedetomidine-induced sleep time (Male Sprague-Dawley rats [1]; MK-801 50 μg/kg acute): has no effect on dexmedetomidine-induced sleep time; effect of acute administration on dexmedetomidine-induced sleep time (Male Sprague-Dawley rats [1]; MK-801 10-200 μg/kg, naïve animals, dexmedetomidine 100 μg/kg i.p. (FIG. 2A)): did not affect sleep time; effect of co-administration on development of tolerance to the hypnotic effect of dexmedetomidine (Male Sprague-Dawley rats [1]): blocks tolerance; also recorded: able to prevent the development of tolerance; effect of co-administration on development of tolerance to the hypnotic effect of dexmedetomidine (Male Sprague-Dawley rats [1]; listed as dizolcipine): blocked; effect of acute administration on expression of tolerance to the hypnotic effect of dexmedetomidine (Male Sprague-Dawley rats [1]; MK-801 acute, rats already tolerant (dexmedetomidine 5 μg/kg/h, 7 days) (FIG. 2B)): does not block dexmedetomidine-induced tolerance; also recorded: did not affect the expression of tolerance; effect of acute administration on expression of tolerance to the hypnotic effect of dexmedetomidine (Male Sprague-Dawley rats [1]; MK-801 acute, rats already tolerant (dexmedetomidine 5 μg/kg/h, 7 days) (FIG. 2B), listed as dizolcipine): does not prevent the expression of tolerance; effect of acute low dose on expression of tolerance to the analgesic effect of dexmedetomidine (Male Sprague-Dawley rats [2]; MK-801 50 μg/kg acute, rats tolerant after dexmedetomidine 10 μg/kg/hr for 14 days (FIG. 4B)): does not prevent the expression of tolerance; also recorded: did not reverse the expression of tolerance; effect of higher dose on the analgesic action of dexmedetomidine (Male Sprague-Dawley rats [2]; MK-801 400 μg/kg acute, control animals): antagonized the analgesic action of dexmedetomidine; effect of acute higher dose on tolerance to the analgesic effect of dexmedetomidine (Male Sprague-Dawley rats [2]; MK-801 400 μg/kg acute, tolerant animals): unable to reverse tolerance; effect of acute administration on the analgesic action of dexmedetomidine (Male Sprague-Dawley rats [2]; MK-801 15 min before dexmedetomidine 50 μg/kg, naive rats (FIG. 4A)): suppressed its analgesic action at the two highest doses; effect of co-administration on development of analgesic tolerance to dexmedetomidine (Male Sprague-Dawley rats [2]; MK-801 (0.4 μg/kg/hr as printed; maximum dose tolerated by the rat) with dexmedetomidine 10 μg/kg/hr for 14 days (FIG. 4C)): does not prevent the development of tolerance; also recorded: had no effect on the development of analgesic tolerance; effect of low dose on dexmedetomidine-induced analgesia (Male Sprague-Dawley rats [2]; low dose of MK-801 (50 μg/kg) acute, control animals (FIG. 4B)): did not have any affect on dexmedetomidine-induced analgesia; effect on tail flick latency / dexmedetomidine's analgesic action when administered alone (Male Sprague-Dawley rats [2]; same chronic dose of MK-801 alone (FIG. 4C)): does not affect dexmedetomidine's analgesic action; also recorded: had no effect on tail flick latency
